What was measured:
SUD4 [1] = assay: Antiproliferative activity against over expressing […] human SUDHL4 cells; type: functional, cell-based; settings: SU-DHL-4
[2] = Antiproliferative activity against over expressing […] human WSU-DLCL2 cells; type: functional; settings: WSUDLCL2
MV4-11 = assay: Antiproliferative activity against human MV4-11 cells; type: functional, cell-based
[3] = molecular target: T1, Histone-lysine N-methyltransferase EZH2 (Homo sapiens, UniProt Q15910); assay: Inhibition of wild type EZH2 (unknown origin) by AlphaLISA assay
Target sequence in this assay (Q15910 whole entry): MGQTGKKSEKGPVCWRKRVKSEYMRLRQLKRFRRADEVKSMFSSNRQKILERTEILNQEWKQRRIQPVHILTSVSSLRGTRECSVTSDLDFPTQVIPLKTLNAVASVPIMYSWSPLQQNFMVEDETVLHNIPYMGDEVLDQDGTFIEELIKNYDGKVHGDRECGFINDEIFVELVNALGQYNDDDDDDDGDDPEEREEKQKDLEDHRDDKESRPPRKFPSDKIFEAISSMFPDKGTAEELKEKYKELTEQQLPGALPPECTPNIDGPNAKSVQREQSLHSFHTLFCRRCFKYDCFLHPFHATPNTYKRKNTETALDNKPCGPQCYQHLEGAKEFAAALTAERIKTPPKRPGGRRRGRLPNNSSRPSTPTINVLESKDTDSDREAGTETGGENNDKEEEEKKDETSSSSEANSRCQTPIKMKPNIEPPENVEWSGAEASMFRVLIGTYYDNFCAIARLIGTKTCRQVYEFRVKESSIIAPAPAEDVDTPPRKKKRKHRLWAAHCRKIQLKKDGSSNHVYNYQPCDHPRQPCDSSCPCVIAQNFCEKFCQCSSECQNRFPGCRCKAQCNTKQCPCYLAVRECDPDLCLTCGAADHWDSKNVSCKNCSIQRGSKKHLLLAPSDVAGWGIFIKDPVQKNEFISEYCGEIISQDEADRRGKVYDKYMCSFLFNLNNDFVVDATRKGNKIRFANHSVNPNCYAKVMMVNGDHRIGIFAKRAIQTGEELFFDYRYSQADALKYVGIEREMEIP

SUD4 [4] = assay: Induction of apoptosis in human SUDHL4 cells assessed as necrotic cells at 1 uM after 6 days by AnnexinV/propidium iodide staining based flow cytometry analysis (reference value: 0.737 %); type: functional
SUD4 [5] = assay: Induction of apoptosis in human SUDHL4 cells assessed as viable cells at 4 uM after 6 days by AnnexinV/propidium iodide staining based flow cytometry analysis (reference value: 92.7 %); type: functional; settings: SU-DHL-4, 144 h, read-out: Activity
[6] = molecular target: T1, Histone-lysine N-methyltransferase EZH2; assay: Inhibition of EZH2 in human SUDHL4 cells assessed as reduction in H3K27 methylation measured after 6 days by western blot analysis; type: cell-based; settings: SUD4
Target sequence in this assay (Q15910 whole entry, looked up): as the sequence (Q15910 whole entry) above

SUD4 [7] = assay: Induction of apoptosis in human SUDHL4 cells assessed as early apoptotic cells at 1 uM after 6 days by AnnexinV/propidium iodide staining based flow cytometry analysis (reference value: 0.061 %); type: functional
SUD4 [8] = assay: Induction of apoptosis in human SUDHL4 cells assessed as viable cells at 2 uM after 6 days by AnnexinV/propidium iodide staining based flow cytometry analysis (reference value: 92.7 %); type: functional; settings: SU-DHL-4, 144 h, read-out: Activity
SUD4 [9] = assay: Induction of apoptosis in human SUDHL4 cells assessed as necrotic cells at 2 uM after 6 days by AnnexinV/propidium iodide staining based flow cytometry analysis (reference value: 0.737 %); type: functional
SUD4 [10] = assay: Induction of apoptosis in human SUDHL4 cells assessed as late apoptotic cells at 2 uM after 6 days by AnnexinV/propidium iodide staining based flow cytometry analysis (reference value: 2.01 %); type: functional
SUD4 [11] = assay: Induction of apoptosis in human SUDHL4 cells assessed as viable cells at 1 uM after 6 days by AnnexinV/propidium iodide staining based flow cytometry analysis (reference value: 92.7 %); type: functional; settings: SU-DHL-4, 144 h, read-out: Activity
SUD4 [12] = assay: Induction of apoptosis in human SUDHL4 cells assessed as late apoptotic cells at 1 uM after 6 days by AnnexinV/propidium iodide staining based flow cytometry analysis (reference value: 2.01 %); type: functional
SUD4 [13] = assay: Induction of apoptosis in human SUDHL4 cells assessed as early apoptotic cells at 2 uM after 6 days by AnnexinV/propidium iodide staining based flow cytometry analysis (reference value: 0.061 %); type: functional
SUD4 [14] = assay: Induction of apoptosis in human SUDHL4 cells assessed as late apoptotic cells at 4 uM after 6 days by AnnexinV/propidium iodide staining based flow cytometry analysis (reference value: 2.01 %); type: functional
SUD4 [15] = assay: Induction of apoptosis in human SUDHL4 cells assessed as necrotic cells at 4 uM after 6 days by AnnexinV/propidium iodide staining based flow cytometry analysis (reference value: 0.737 %); type: functional
SUD4 [16] = assay: Induction of apoptosis in human SUDHL4 cells assessed as early apoptotic cells at 4 uM after 6 days by AnnexinV/propidium iodide staining based flow cytometry analysis (reference value: 0.061 %); type: functional

SMILES | IC50 (SUD4 [1]) | IC50 [2] | IC50 (MV4-11) | other results
CCN(c1cc(/C=C/c2ccc(CN3CCOCC3)cc2)cc(C(=O)NCc2c3c(c(C)[nH]c2=O)CCCC3)c1C)C1CCOCC1 | > 30 µM | > 30 µM | 6.41 µM | 
CCN(c1cc(/C=C/c2ccc(N3CCOCC3)nc2)cc(C(=O)NCc2c(C)c3c([nH]c2=O)CCCC3)c1C)C1CCOCC1 | > 30 µM | 25.8 µM | > 30 µM | 
CCN(c1cc(/C=C/c2ccc(CN3C[C@H]4C[C@@H]3CO4)c(F)c2)cc(C(=O)NCc2c(C)c3c([nH]c2=O)CCCC3)c1C)C1CCOCC1 | > 30 µM | 6.18 µM | > 30 µM | 
CCN(c1cc(/C=C/c2ccc(CN3CCN(C)CC3)cc2)cc(C(=O)NCc2c(C)c3c([nH]c2=O)CCCC3)c1C)C1CCOCC1 | 4.31 µM | 3.11 µM | 22.6 µM | 
CCN(c1cc(/C=C/c2ccc(/C=C/C(=O)OC)cc2)cc(C(=O)NCc2c3c(c(C)[nH]c2=O)CCCC3)c1C)C1CCOCC1 |  | 21.2 µM |  | 
CCN(c1cc(/C=C/c2ccc(CN3CCOCC3)cc2)cc(C(=O)NCc2c(C)c3c([nH]c2=O)CCCC3)c1C)C1CCOCC1 | 25.7 µM | > 30 µM | > 30 µM | 
CCN(c1cc(/C=C/c2ccc(CN3C[C@@H]4C[C@H]3CO4)c(F)c2)cc(C(=O)NCc2c3c(c(C)[nH]c2=O)CCCC3)c1C)C1CCOCC1 | 15.4 µM | 9.27 µM | 21.1 µM | 
CCN(c1cc(/C=C/c2cccc(CN(C)C)c2)cc(C(=O)NCc2c(C)c3c([nH]c2=O)CCCC3)c1C)C1CCOCC1 | 15.7 µM | 20.9 µM | 3.98 µM | 
CCN(c1cc(/C=C/c2ccc(N3CCOCC3)nc2)cc(C(=O)NCc2c3c(c(C)[nH]c2=O)CCCC3)c1C)C1CCOCC1 | 21.7 µM | 12.6 µM | > 30 µM | 
CCN(c1cc(/C=C/c2ccc(S(=O)(=O)N3CCOCC3)cc2)cc(C(=O)NCc2c3c(c(C)[nH]c2=O)CCCC3)c1C)C1CCOCC1 |  | > 30 µM |  | 
CCN(c1cc(/C=C/c2ccc(CN3CCN(C)CC3)cc2)cc(C(=O)NCc2c3c(c(C)[nH]c2=O)CCCC3)c1C)C1CCOCC1 | 5.96 µM | 2.58 µM | > 30 µM | 
CCN(c1cc(/C=C/c2ccc(CN3C[C@H]4C[C@@H]3CO4)c(F)c2)cc(C(=O)NCc2c3c(c(C)[nH]c2=O)CCCC3)c1C)C1CCOCC1 | > 30 µM | 5.85 µM | > 30 µM | 
CCN(c1cc(/C=C/c2ccc(S(=O)(=O)N3CCOCC3)cc2)cc(C(=O)NCc2c(C)c3c([nH]c2=O)CCCC3)c1C)C1CCOCC1 |  | > 30 µM |  | 
CCN(c1cc(/C=C/c2ccc(CN3CCC4(CC3)OCCO4)cc2)cc(C(=O)NCc2c(C)c3c([nH]c2=O)CCCC3)c1C)C1CCOCC1 | 21.6 µM | 17.5 µM | 3.87 µM | IC50 [3]: 0.189 µM
CCN(c1cc(/C=C/c2ccc(CN3C[C@@H]4C[C@H]3CO4)c(F)c2)cc(C(=O)NCc2c(C)c3c([nH]c2=O)CCCC3)c1C)C1CCOCC1 | 10.5 µM | 4.58 µM | 24.3 µM | 
CCN(c1cc(/C=C/c2cccc(CN3CCOCC3)c2)cc(C(=O)NCc2c(C)c3c([nH]c2=O)CCCC3)c1C)C1CCOCC1 | > 30 µM | > 30 µM | 9.23 µM | 
CCN(c1cc(/C=C/c2ccc(CN3C[C@@H](C)O[C@@H](C)C3)cc2)cc(C(=O)NCc2c3c(c(C)[nH]c2=O)CCCC3)c1C)C1CCOCC1 | > 30 µM | > 30 µM | > 30 µM | 
CCN(c1cc(/C=C/c2ccc(CN3C[C@@H](C)O[C@@H](C)C3)c(F)c2)cc(C(=O)NCc2c3c(c(C)[nH]c2=O)CCCC3)c1C)C1CCOCC1 | > 30 µM | 27.7 µM | 4.36 µM | 
CCN(c1cc(/C=C/c2ccc(CN3C[C@@H](C)O[C@@H](C)C3)cc2)cc(C(=O)NCc2c(C)c3c([nH]c2=O)CCCC3)c1C)C1CCOCC1 | > 30 µM | > 30 µM | 8.04 µM | 
CCN(c1cc(/C=C/c2cccc(CN3CCOCC3)c2)cc(C(=O)NCc2c3c(c(C)[nH]c2=O)CCCC3)c1C)C1CCOCC1 | > 30 µM | > 30 µM | 4.44 µM | 
CCN(c1cc(/C=C/c2ccc3c(c2)NC(=O)CO3)cc(C(=O)NCc2c(C)c3c([nH]c2=O)CCCC3)c1C)C1CCOCC1 | 25.7 µM | > 30 µM | 5.69 µM | 
CCN(c1cc(/C=C/c2ccc(CN3CCC4(CC3)OCCO4)cc2)cc(C(=O)NCc2c3c(c(C)[nH]c2=O)CCCC3)c1C)C1CCOCC1 | > 30 µM | 27.7 µM | 3.21 µM | IC50 [3]: 0.055 µM
CCN(c1cc(/C=C/c2cccc(CN(C)C)c2)cc(C(=O)NCc2c3c(c(C)[nH]c2=O)CCCC3)c1C)C1CCOCC1 | 2.34 µM | 1.61 µM | 2.8 µM | Activity (SUD4 [4]): 1.34%; viability at 4 µM (SUD4 [5]): 5.91%; inhibition [6]: Dose-dependent effect; Activity (SUD4 [7]): 0.112%; viability at 2 µM (SUD4 [8]): 25.5%; Activity (SUD4 [9]): 4.14%; Activity (SUD4 [10]): 69.1%; viability at 1 µM (SUD4 [11]): 62.3%; Activity (SUD4 [12]): 36.2%; Activity (SUD4 [13]): 1.28%; Activity (SUD4 [14]): 92.9%; Activity (SUD4 [15]): 0.824%; Activity (SUD4 [16]): 0.369%
CCN(c1cc(-c2ccc(CN3CCOCC3)cc2)cc(C(=O)NCc2c(C)cc(C)[nH]c2=O)c1C)C1CCOCC1 [TAZEMETOSTAT] | 14.3 µM | 17.8 µM | 22.4 µM | 
CCN(c1cc(/C=C/c2ccc3c(c2)NC(=O)CO3)cc(C(=O)NCc2c3c(c(C)[nH]c2=O)CCCC3)c1C)C1CCOCC1 | 30 µM | > 30 µM | 4.56 µM | 
CCN(c1cc(-c2ccc(CN3CCN(C)CC3)cc2)cc(C(=O)NCc2c3c(c(C)[nH]c2=O)CCCC3)c1C)C1CCOCC1 | 1.78 µM | 1.64 µM | > 30 µM | 
CCN(c1cc(/C=C/c2ccc(CN3C[C@@H](C)O[C@@H](C)C3)c(F)c2)cc(C(=O)NCc2c(C)c3c([nH]c2=O)CCCC3)c1C)C1CCOCC1 | 20.4 µM | > 30 µM | 12 µM | 

From ChEMBL document CHEMBL4627254, “Design and synthesis of (E)-1,2-diphenylethene-based EZH2 inhibitors” (Bioorg Med Chem Lett, 2020)
